The text below walks through data of ChEMBL document CHEMBL5247658, “Development of Fluorescent 4-[4-(3H-Spiro[isobenzofuran-1,4'-piperidin]-1'-yl)butyl]indolyl Derivatives as High-Affinity Probes to Enable the Study of σ Receptors via Fluorescence-Based Techniques” (J Med Chem, 2023).

Each structure is given as a SMILES string.

In series [1] the target is T1, Sigma intracellular receptor 2 (Homo sapiens, UniProt Q5BJF2). As to the kind of experiment: Binding affinity to sigma 2 receptor (unknown origin) assessed as inhibition constant.
T1 sequence (Q5BJF2 whole entry): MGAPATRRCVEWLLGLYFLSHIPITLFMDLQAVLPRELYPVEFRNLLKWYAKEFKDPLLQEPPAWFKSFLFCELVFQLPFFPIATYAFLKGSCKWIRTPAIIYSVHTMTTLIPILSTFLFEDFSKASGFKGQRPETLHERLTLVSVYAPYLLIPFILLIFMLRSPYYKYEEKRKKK
Series [2] deals with Sigma non-opioid intracellular receptor 1 (Homo sapiens, UniProt Q99720). As to the kind of experiment: Binding affinity to sigma 1 receptor (unknown origin) assessed as inhibition constant.
Sigma non-opioid intracellular receptor 1 (Homo sapiens, UniProt Q99720), sequence (Q99720 whole entry): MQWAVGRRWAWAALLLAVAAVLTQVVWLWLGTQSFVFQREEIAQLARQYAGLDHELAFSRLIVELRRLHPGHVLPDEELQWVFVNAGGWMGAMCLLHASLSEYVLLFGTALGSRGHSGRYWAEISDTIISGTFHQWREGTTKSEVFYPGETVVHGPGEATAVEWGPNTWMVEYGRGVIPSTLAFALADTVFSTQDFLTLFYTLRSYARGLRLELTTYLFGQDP
A short description of series [3]: Drug uptake in human MCF7 cells expressing sigma 1 receptor assessed as increase in fluorescence intensity in presence of (+)-pentazocine incubated at 1 to 10000 nM for 45 mins by flow cytometric analysis. The class given is ADME, cell-based. Conditions: mcf7, 0.75 h, 10 µM, dose 1-10000 nM; call rule not given here.
A short description of series [4]: Drug accumulation in human MCF7 cells assessed as increase in mean fluorescence intensity pretreated with (+)-pentazocine for 60 mins followed by compound addition incubated for 45 mins by flow cytometric analysis. The class given is ADME, cell-based. Conditions: mcf7, 0.75 h, dose 0.01-1 µM. (A flow cytometer gives signals particle by particle.)
The target of series [5] is T1, Sigma intracellular receptor 2. As to the kind of experiment: Binding affinity to sigma 2 receptor in human MCF7 cells assessed as increase in fluorescent intensity pretreated with (+)-pentazocine for 60 mins followed by compound addition incubated for 45 mins by flow cytometric analysis. Conditions: dose 0.01-1 µM. The class given is cell-based.
Series [6] in a line: Drug accumulation in human MCF7 TMEM97 knock out cells assessed as increase in mean fluorescence intensity pretreated with (+)-pentazocine for 60 mins followed by compound addition incubated for 45 mins by flow cytometric analysis. The series is classed as ADME, cell-based. Conditions: mcf7, 0.75 h, dose 0.01-1 µM.
Series [7] addresses T2, Sigma intracellular receptor 2 (Rattus norvegicus, UniProt Q5U3Y7).
T2 sequence (Q5U3Y7 whole entry): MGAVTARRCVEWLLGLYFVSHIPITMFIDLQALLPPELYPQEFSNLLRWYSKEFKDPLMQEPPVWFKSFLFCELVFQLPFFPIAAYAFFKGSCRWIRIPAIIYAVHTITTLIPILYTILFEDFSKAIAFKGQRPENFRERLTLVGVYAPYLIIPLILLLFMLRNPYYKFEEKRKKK
Nature of the series: Displacement of [3H]RHM-1 from sigma 2 receptor in Wistar Han rat liver membrane assessed as inhibition constant by competitive binding assay. The class given is cell membranes. In general terms: Displacement assays read how much labelled ligand stays bound in the presence of the test substance.

For series [8], the target named is T3, Sigma non-opioid intracellular receptor 1 (Cavia porcellus, UniProt Q60492). As to the kind of experiment: Displacement of [3H](+)-pentazocine from sigma 1 receptor in guinea pig brain membranes assessed as inhibition constant by Wallac 1450 MicroBeta liquid scintillation counter. The series is classed as cell membranes, Membrane.
T3 sequence (Q60492 whole entry): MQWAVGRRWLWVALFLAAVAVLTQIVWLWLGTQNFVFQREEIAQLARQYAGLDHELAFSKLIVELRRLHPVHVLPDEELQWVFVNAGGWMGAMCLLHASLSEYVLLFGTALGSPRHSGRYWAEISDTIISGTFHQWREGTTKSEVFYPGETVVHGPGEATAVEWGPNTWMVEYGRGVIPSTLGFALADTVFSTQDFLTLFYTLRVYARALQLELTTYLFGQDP
Series [9] has as its target T2, Sigma intracellular receptor 2. As to the kind of experiment: Displacement of [3H]DTG from sigma 2 receptor in Wistar Han rat liver membrane assessed as inhibition constant by competitive binding assay. The series is classed as cell membranes.
Series [10] has as its target T3, Sigma non-opioid intracellular receptor 1. Nature of the series: Displacement of [3H](+)-pentazocine from sigma 1 receptor in guinea pig brain membranes assessed as inhibition constant by competitive binding assay. The class given is cell membranes, Membrane.

As a reminder, the Ki is the dissociation constant of the complex between target and ligand, obtained from inhibition or displacement.

`CN(C)c1ccc2c(c1)C(=O)N(Oc1cccc3c1CCCC3CCCN1CCN(C3CCCCC3)CC1)C2=O` (configuration not stated): in series [1], the Ki came to 6.9 nM.
`CC1CCN(CCCCc2cccc3cc(OCCCCCCN4C(=O)c5ccc(N(C)C)cc5C4=O)ccc23)CC1`: the results for the inhibition constant Ki in series [1] and in [2] were 17.9 nM and 0.03 nM, respectively.
Consider `C[N+]1=C(/C=C/C=C/C=C2\N(CCCCCC(=O)NCCCCCCn3cc(CCCCN4CCC5(CC4)OCc4ccccc45)c4ccccc43)c3ccccc3C2(C)C)C(C)(C)c2ccccc21.[I-]`, for which the Drug uptake result in series [3] was “Not Active”; in series [4], “Dose-Dependent Effect”; in series [6] it was “Dose-Dependent Effect”. The Activity entry in [5] was “Dose-Dependent Effect”.
`C[N+]1=C(/C=C/C=C/C=C2/N(CCCCCC(=O)Nc3ccc4ccn(CCCCN5CCC6(CC5)OCc5ccccc56)c4c3)c3ccccc3C2(C)C)C(C)(C)c2ccccc21.[I-]`: the Drug uptake entry in [4] is on record as “Dose-Dependent Effect”.
Regarding `COc1ccc(C)cc1NC(=O)OC1C[C@H]2CCC[C@@H](C1)N2CCCCCCCCCCS(=O)(=O)c1cccc2c(N(C)C)cccc12` (some centres not stated), the inhibitory constant (Ki) in series [7] worked out at 14 nM; in [8] it was 1.05 nM.
As to `COc1cc2c(cc1OC)CN(CCCN1CCc3c(OCCCCCCN4C(=O)c5ccc(N(C)C)cc5C4=O)cccc3C1=O)CC2`, the Ki is 10.2 nM in series [9] and greater than 5 µM in series [10].
